What was measured:
[1] = test system: phospho-MAPK and phospho-Ser^473 AKT; assay: Western blot of phospho-MAPK and phospho-AKT; format: cell-based, human; settings: BT-474; 48 hours; OA 5 μM, trastuzumab 10 μg/ml in combination
Description: Densitometric values of protein bands were quantified using Scion Imaging Software (Scion Corp., Frederick, Md.).

SK-Br3 cells = assay: TUNEL apoptosis assay, SK-Br3; format: cell-based, human; settings: GLA 10 μg/mL, trastuzumab 10 μg/mL, alone or together, 48 hours
Protocol: FIG. 6. […] After 72 hours, a TUNEL analysis was performed using the DeadEnd® Fluorometric TUNEL System (Promega Inc.) according to the manufacturer's protocol. The immunofluorescence photomicrographs of cells undergoing apoptosis (green staining) and the corresponding DAPI-counterstained photomicrographs are shown. […] Equal amounts of total protein (50 μg per lane) were subjected to Western blot analyses with a specific antibody against the p85 fragment of PARP, and then re-probed with a β-actin antibody. […] For each pair of columns, the height of the columns on the left represents the sum of the effect of each agent alone and, therefore, the expected apoptotic cell death if their effect was additive when used in combination. […] A) Cell surface expression of Her-2/neu protein in BT-474 and SK-Br3 cells was determined by flow cytometry using a mouse anti-Her-2/neu antibody directed against the extracellular domain of the p185^Her-2/neu oncoprotein (clone Ab-5; Oncogene Research Products; San Diego, Calif.). […] The mean fluorescence signal associated with cells for labeled p185^Her-2/neu was quantified using the Geo Mean (GM) fluorescence parameter provided with the software. […] Immunoreactive bands were detected by enhanced chemiluminescence reagent (Pierce, Rockford, Ill.). […] Densitometric values of protein bands were quantified using Scion Imaging Software (Scion Corp., Frederick, Md.).

p185^Her-2/neu = settings: cultured breast cancer cells; exogenous GLA supplementation; reference (16); cited from earlier work

SMILES	active MAPK and active AKT (phospho-MAPK, phospho-Ser^473 AKT) [1]	cells that underwent apoptosis (TUNEL) (SK-Br3 cells)	proteolytic cleavage of the extracellular domain of p185^Her-2/neu (p185^Her-2/neu)
CCCCCCCCC=CCCCCCCCC(=O)O [OA, 9-octadecenoic acid]	inhibited active MAPK and active AKT		
CCCCCC=CCC=CCC=CCCCCC(=O)O [GLA, 6,9,12-octadecatrienoic acid]		3% (95% CI=2 to 4%)	significantly diminished
